These results are taken from PMC12736958 (Pharmaceutics, 2025).

Data set [1] is described as follows: in vivo pharmacokinetic study in rats. Set-up: species or system Sprague-Dawley (SD) rats. The note with it: rat; for plasma concentration of Cur, individual animals: Rat1-Rat5. The procedure:
Male Sprague-Dawley (SD) rats (200 ± 20 g) were supplied by SPF Biotechnology Co., Ltd. (Beijing, China) and housed under standard laboratory conditions throughout the study. All animals were housed in a controlled environment (22 ± 2 °C, 55 ± 10% humidity) under a 12/12 h light/dark cycle, with free access to a standard laboratory rodent diet and water. A 12 h fasting period was implemented prior to the experiment, with water permitted ad libitum. All animal procedures were performed in strict accordance with protocols approved by the Biological and Medical Ethics Committee of Minzu University of China.
After fasting for 12 h (with free access to water), SD rats (n = 25) were randomly divided into five groups (n = 5 per group). Group 1: crystalline Cur (i.v., dissolved in saline with 5% DMSO). Group 2: crystalline Cur (p.o., suspended in 0.5% CMC-Na). Group 3: Cur/P188 ASD (1:8, w/w; p.o.). Group 4: Cur/P188/TW80 ASD (1:8:1, w/w/w; p.o.). Group 5: Cur/P188/SLS ASD (1:8:1, w/w/w; p.o.). Group 1 received the formulation via tail vein injection, while Groups 2–5 were suspended in water (pH 7.0) and administered orally by gavage at a Cur-equivalent dose of 40 mg/kg. Blood samples (0.2 mL) were collected from each rat at 4, 7, 10, 20, and 30 min, and 1, 2, 4, and 24 h post-dosing. Plasma was separated by centrifugation (5000 rpm, 5 min, 4 °C) and stored at −80 °C until analysis.
Cur was extracted from 50 μL of plasma using 600 μL of ethyl acetate and quantified by LC-MS/MS, with diclofenac sodium (20 μL, 200 ng/mL) serving as the internal standard. Blank plasma was obtained from a separate control group (n = 5) that received water only. Analysis of these blank samples confirmed the absence of significant matrix interference, thereby validating the analytical method.
Cur quantification in cellular and rat plasma samples was carried out using a SCIEX QTRAP® 5500 LC-MS/MS system coupled with a SCIEX ExionLC^TM AC system (AB SCIEX, Framingham, MA, USA).
Separation was achieved on an Acquity UPLC® BEH C18 column (100 × 2.1 mm, 1.7 μm; Waters) maintained at 40 °C. The mobile phase consisted of (A) 0.1% formic acid in water and (B) acetonitrile (ACN), delivered at a flow rate of 0.14 mL/min with the following gradient program: 10% B (0–1.0 min), increased to 95% B (1.0–9.0 min), and returned to 10% B (9.0–12.0 min). The injection volume was 5 μL. The retention times were approximately 4.85 min for Cur and 6.70 min for diclofenac sodium, used as the internal standard (IS).
Mass spectrometric detection was performed using an IonDrive^TM Turbo V ion (SCIEX, Framingham, MA, USA) source operating in negative electrospray ionization (ESI) mode. Quantification was conducted via multiple reaction monitoring (MRM) at m/z 367.1→133.9 for Cur, and m/z 294.1→250.0 for diclofenac sodium (IS). The assay was linear over the concentration range of 2-500 ng/mL (R^2 > 0.999). All data were acquired in triplicate (n = 3) and processed using MultiQuant software version 3.0.2 (AB SCIEX).
Pharmacokinetic parameters were calculated using non-compartmental analysis with DAS 2.0 software (Boying Corporation, Beijing, China). Data analysis was performed using GraphPad Prism 10.1.2 software. The result is expressed as mean ± standard deviation (SD). For pairwise comparisons between groups, t-tests were conducted. For multiple group comparisons, one-way analysis of variance (ANOVA) was performed, followed by Tukey’s post hoc test for multiple comparisons. Prior to ANOVA, the assumptions of normality and homogeneity of variances were verified using the Shapiro–Wilk test and Bartlett’s test, respectively. p < 0.05 indicates statistically significant differences.

Data set [2] in a line: equilibrium solubility of crystalline Cur in excipient solutions. It counts as physicochemical. Conditions: read-out: equilibrium solubility (Cur con.). As to the method: Excess crystalline Cur was suspended in each solution, vortexed (1 min), sonicated (10 min), and incubated (37 °C, 24 h). After incubation, suspensions were filtered (0.22 μm), and Cur concentration in the filtrate was quantified using HPLC/UV-Vis (HPLC/UV-Vis Method section). All experiments were performed in quadruplicate (n = 4).
Cur content in in vitro dissolution samples was quantified using a Waters 2695 Alliance HPLC system (Waters Corporation, Milford, MA, USA) equipped with a Waters 2998 photodiode array (PDA) detector. Separation was performed on an XBridge® C18 column (4.6 × 250 mm, 5.0 μm; Waters) maintained at 25 °C. The mobile phase, composed of water and methanol (80:20, v/v), was delivered isocratically at a flow rate of 1.0 mL/min. The injection volume was 10 μL, and detection was performed at 430 nm, and Cur eluted at approximately 4.80 min. […] All data were acquired in triplicate (n = 3) and processed using Empower®3 Software (Waters).

Where [3] appears, read: male, Sprague-Dawley, plasma, oral (o.p.), 40 mg/kg Cur-equivalent.

Converted amounts (≈) assume the structure as drawn. “And” between values parts separate entries of the source, which are not always exact repeats. Identical values can stand only once. Like-named read-outs stand apart in the source and are kept apart here.

The term Cmax denotes the highest concentration seen after dosing. As usually defined, the Tmax is the time from dosing to the highest level. What is called half-life is the time needed for the level to fall by half in the phase considered. What is called bioavailability is dose-corrected exposure relative to a reference, in per cent.

In the case of `COc1cc(/C=C/C(=O)CC(=O)/C=C/c2ccc(O)c(OC)c2)ccc1O` [Crystalline Cur, Curcumin], the highest concentration (Cmax) in data set [1] (setting [3]) was found to be 2.4 ± 0.4 ng/mL. For the same molecule, the Tmax in data set [1] (setting [3]) stood at 0.2 h. The half-life in data set [1] (setting [3]) was 1.8 ± 0.4 h. Besides, the MRT last in data set [1] (male, Sprague-Dawley, plasma, oral (o.p.), 40 mg/kg Cur-equivalent, read-out: MRT(0–24)) amounted to 6.3 ± 2 h. Besides, the bioavailability in data set [1] (male, Sprague-Dawley, plasma, oral, 40 mg/kg, oral 40 mg/kg relative to intravenous administration, read-out: F (absolute oral bioavailability)) was approximately 1%. The concentration at 0.12 h in data set [1] (male, Sprague-Dawley, plasma, po, 40 mg/kg, oral (o.p.), 40 mg/kg, 0.12 h, Rat1-Rat5, read-out: plasma concentration of Cur, individual animals) turned out to be 2.6 ng/mL. In data set [1] (male, Sprague-Dawley, plasma, po, 40 mg/kg, oral (o.p.), 40 mg/kg, 0.17 h, Rat1-Rat5, read-out: plasma concentration of Cur, individual animals), the concentration at 0.17 h turned out to be 2.8 ng/mL. Besides, the “F (absolute oral bioavailability)” value in data set [1] (oral 40 mg/kg relative to intravenous administration, 40 mg/kg) was 0.97%. Besides, the “plasma concentration of Cur, individual animals” value was 1.7 ng/mL and 1.4 ng/mL (2×) and 0.7 ng/mL and 1.1 ng/mL in data set [1] (oral (o.p.), 40 mg/kg, 0.07 h); 2.6 ng/mL and 2.1 ng/mL and 1.6 ng/mL and 1.9 ng/mL in data set [1] (oral (o.p.), 40 mg/kg, 0.12 h); 2.8 ng/mL and 2.5 ng/mL and 2.1 ng/mL and 2.0 ng/mL in data set [1] (oral (o.p.), 40 mg/kg, 0.17 h); 2.5 ng/mL and 2.1 ng/mL and 2.0 ng/mL and 1.5 ng/mL and 1.0 ng/mL in data set [1] (oral (o.p.), 40 mg/kg, 0.33 h); 2.2 ng/mL and 1.4 ng/mL and 1.2 ng/mL (2×) and 0.542 ng/mL in data set [1] (oral (o.p.), 40 mg/kg, 0.5 h); 1.4 ng/mL and 0.7 ng/mL and 0.845 ng/mL and 0.9 ng/mL and 0.369 ng/mL in data set [1] (oral (o.p.), 40 mg/kg, 1 h). Further, the “plasma concentration of Cur, individual animals” value in data set [1] (oral (o.p.), 40 mg/kg, 2 h) was 0.64 ng/mL and 0.9 ng/mL and 0.5 ng/mL and 0.7 ng/mL and 0.2 ng/mL; in data set [1] (oral (o.p.), 40 mg/kg, 4 h) it was 0.256 ng/mL and 0.433 ng/mL and 0.228 ng/mL and 0.35 ng/mL and 0.125 ng/mL; in data set [1] (oral (o.p.), 40 mg/kg, 24 h), 0.08 ng/mL and 0.056 ng/mL and 0.2 ng/mL and 0.112 ng/mL and 0.1 ng/mL. For the same molecule, the solubility thermodynamic at 24 h is 8.5 µg/mL in data set [2] (aqueous P188/SLS solution (8 mg/mL + 1 mg/mL), pH 7, aqueous with cosolvent or surfactant or cyclodextrin, thermodynamic from solid, P188/SLS 8 mg/mL + 1 mg/mL in water, 37 °C); 10.3 µg/mL in data set [2] (aqueous P188/TW80 solution (8 mg/mL + 1 mg/mL), pH 7, aqueous with cosolvent or surfactant or cyclodextrin, thermodynamic from solid, P188/TW80 8 mg/mL + 1 mg/mL in water, 37 °C); less than 0.1 µg/mL in data set [2] (aqueous P188 solution (8 mg/mL), pH 7, P188 8 mg/mL in water, 37 °C); less than 0.1 µg/mL in data set [2] (aqueous SLS solution (1 mg/mL), pH 7, SLS 1 mg/mL in water, 37 °C); 9.1 µg/mL (≈ 24.7 µM) in data set [2] (aqueous TW80 solution (1 mg/mL), pH 7, aqueous with cosolvent or surfactant or cyclodextrin, thermodynamic from solid, TW80 1 mg/mL in water, 37 °C); less than 0.1 µg/mL in data set [2] (thermodynamic from solid, pure water, pH 7.0, 37 °C, filtered 0.22 μm).
